Columns and labels:
Cavia porcellus = assay: Percent of control LTB4 -induced bronchoconstriction in guinea pigs before 20 hours pretreatment at 1.0 mg/kg; type: functional
Leukotriene B4 receptor [1] = target: T1, Leukotriene B4 receptor (Homo sapiens, UniProt Q9NPC1+Q15722); assay: Inhibition of LTB4 -induced bronchoconstriction in guinea pigs following 0.1 mg/kg prior to challenge.; type: functional, organism-based; parameters: dose 0.1 mg/kg; scale not given: the % may be the effect or the level left; settings: Cavia porcellus; target entry is the homologue from another species; at 0.1 mg/kg
T1 sequence (Q15722 whole entry, looked up): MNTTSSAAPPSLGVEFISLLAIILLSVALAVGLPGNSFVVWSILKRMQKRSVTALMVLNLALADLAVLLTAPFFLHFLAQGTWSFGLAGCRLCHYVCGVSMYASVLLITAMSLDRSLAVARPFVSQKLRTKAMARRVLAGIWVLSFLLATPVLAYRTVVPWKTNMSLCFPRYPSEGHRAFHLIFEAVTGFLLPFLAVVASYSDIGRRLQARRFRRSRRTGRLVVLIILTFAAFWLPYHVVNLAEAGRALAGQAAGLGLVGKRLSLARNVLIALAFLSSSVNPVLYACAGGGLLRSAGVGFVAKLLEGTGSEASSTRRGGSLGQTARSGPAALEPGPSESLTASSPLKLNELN
T1 sequence (Q9NPC1 whole entry, looked up): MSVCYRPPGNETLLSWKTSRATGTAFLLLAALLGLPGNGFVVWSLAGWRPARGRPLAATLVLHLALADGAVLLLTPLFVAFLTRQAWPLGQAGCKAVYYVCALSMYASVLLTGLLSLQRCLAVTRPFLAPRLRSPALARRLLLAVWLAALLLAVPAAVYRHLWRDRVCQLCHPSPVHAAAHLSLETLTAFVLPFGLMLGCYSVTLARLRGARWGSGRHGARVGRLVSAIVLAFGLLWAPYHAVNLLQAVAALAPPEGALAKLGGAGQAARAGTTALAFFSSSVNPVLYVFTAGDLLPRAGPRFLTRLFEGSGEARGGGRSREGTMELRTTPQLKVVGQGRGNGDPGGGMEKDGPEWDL

Leukotriene B4 receptor [2] = target: T1, Leukotriene B4 receptor; assay: Inhibition of leukotriene B4 (LTB4) binding to its receptor on intact human neutrophils

Structure (SMILES) | Control (Cavia porcellus) [%] | Control (Leukotriene B4 receptor [1]) [%] | Ki (Leukotriene B4 receptor [2]) [nM]
CCCc1c(OCCCCCCc2cccc(OCCCCCC(=O)O)c2CCC(=O)O)ccc2c1CCCC2=O | 25 |  | 
CCCc1c(OCCCCCCc2cccc(OCCCCC(=O)O)c2CCC(=O)O)ccc2c1OCCC2=O | 26 |  | 
CCCc1c(OCCCCCCc2cccc(OCCCCCCC(=O)O)c2CCC(=O)O)ccc2c1OCCC2=O | 73 |  | 
CCCc1c(OCCCOc2ccc(-c3cscn3)c(OC)c2CC2CC2)ccc2c1OC(C(=O)O)CC2 (configuration not stated) | 36 |  | 
CCCc1c(OCCCCCCc2cccc(OCCCCCCCC(=O)O)c2CCC(=O)O)ccc2c1OCCC2=O | 27 |  | 
CCCc1c(OCCCCCCc2cccc(OCCCC(=O)O)c2CCC(=O)O)ccc2c1CCCC2=O | 19 |  | 
COc1ccc(/C=C/CCCCOc2ccc(C(=O)c3cccc(C(=O)O)c3)cc2CCC(=O)O)cc1 |  | 88 | 11
CCCc1c(OCCCOc2ccc(C(C)=O)c(OC)c2CCC)ccc2c1OC(C(=O)O)CC2 (racemic) |  | 91 | 
CCCc1c(OCCCCCOc2cc3c(cc2C(C)=O)CCC(C(=O)O)O3)ccc(C(C)=O)c1O (racemic) [ABLUKAST] |  |  | 320
COc1cc(C(=O)N(C(C)C)C(C)C)ccc1OCCCCCOc1ccc(C(=N)N)cc1.O=C(O)/C=C\C(=O)O [MOXILUBANT MALEATE] |  | 80 | 1
CCCc1c(OCCCCCCc2cccc(OCCCC(=O)O)c2CCC(=O)O)ccc2c1OCCC2=O | 20 |  | 
COc1ccc(/C=C/CCCCOc2cccc(OCCCCC(=O)O)c2CCC(=O)O)cc1 |  | 101 | 
CC(C)(CCCCOc1cc(-c2ccccc2)cc(-c2ccccc2)n1)c1nnn[nH]1 | 15 |  | 
CCCc1c(OCCCCCCc2cccc(OCCCCCCCCC(=O)O)c2CCC(=O)O)ccc2c1OCCC2=O | 24 |  | 
CCCc1c(OCCCCCCc2ccc(OCCCC(=O)O)cc2CCC(=O)O)ccc2c1OCCC2=O | 45 |  | 

— ChEMBL document CHEMBL1151094, “Benzenepropanoic acids containing chromanone or naphthalenone moieties are potent and orally active leukotriene B4 antagonists” (Bioorg Med Chem Lett, 1994)
